Assay results reported in patent publication US9096565B2, “Inhibitors of histone deacetylase” (MethylGene Inc., priority 2007, dated 2015).

What follows are compounds tested against one or more of HDAC-4, HDAC-5, HDAC-6, HDAC-7, HDAC-8, HDAC-9, HDAC-10 and HDAC-11 (assay: Inhibition of histone deacetylase enzymatic activity (summary statement over isoforms)). Details: Table 3, selected examples; HDAC isoform not given.
Format: biochemical
Procedure, shortened: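 HDAC enzyme mix with compound was preincubated 5 min at room temperature. Reaction was started at 37 °C with Boc-Lys(trifluoroacetyl)-AMC substrate and run 20-30 min. It was stopped with trypsin (1 mg/mL) plus a known HDAC inhibitor to release the fluorogenic AMC.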

Row | Compound | IC50 [nM]
1 | N#Cc1ccccc1COc1ccc(C(C(=O)NO)c2ccccc2)cc1 (centres unmarked) [Compound 3-61, 2-(4-(2-cyanobenzyloxy)phenyl)-N-hydroxy-2-phenylacetamide] | < 1000
2 | Cc1cc(C)cc(COc2ccc(C(C(=O)NO)c3ccccc3)cc2)c1 (centres unmarked) [Compound 3-62, 2-(4-(3,5-dimethylbenzyloxy)phenyl)-N-hydroxy-2-phenylacetamide] | < 1000
3 | O=C(NO)C(c1ccccc1)c1ccc(OCCOc2ccccc2)cc1 (centres unmarked) [Compound 3-64, N-hydroxy-2-(4-(2-phenoxyethoxy)phenyl)-2-phenylacetamide] | < 1000
4 | O=C(NO)C(c1ccccc1)c1ccc(OCc2ccccc2Cl)cc1 (centres unmarked) [Compound 3-65, 2-(4-(2-chlorobenzyloxy)phenyl)-N-hydroxy-2-phenylacetamide] | < 1000
5 | O=C(NO)C(c1ccccc1)c1ccc(OCc2cccc(Cl)c2)cc1 (centres unmarked) [Compound 3-66, 2-(4-(3-chlorobenzyloxy)phenyl)-N-hydroxy-2-phenylacetamide] | < 1000
6 | O=C(NO)C(c1ccccc1)c1ccc(OCc2ccc(F)cc2F)cc1 (centres unmarked) [Compound 3-67, 2-(4-(2,4-difluorobenzyloxy)phenyl)-N-hydroxy-2-phenylacetamide] | < 1000
7 | O=C(NO)C(c1ccccc1)c1ccc(OCCOCc2ccccc2)cc1 (centres unmarked) [Compound 3-68, 2-(4-(2-(benzyloxy)ethoxy)phenyl)-N-hydroxy-2-phenylacetamide] | < 1000
8 | O=C(NO)C(c1ccccc1)c1ccc(OCCOc2ccc(F)cc2)cc1 (centres unmarked) [Compound 3-69, 2-(4-(2-(4-fluorophenoxy)ethoxy)phenyl)-N-hydroxy-2-phenylacetamide] | < 1000
9 | CC(C)(C)c1ccc(COc2ccc(C(C(=O)NO)c3ccccc3)cc2)cc1 (centres unmarked) [Compound 3-70, 2-(4-(4-tert-butylbenzyloxy)phenyl)-N-hydroxy-2-phenylacetamide] | < 1000
10 | O=C(NO)C(c1ccccc1)c1ccc(OCc2cccc(C(F)(F)F)c2)cc1 (centres unmarked) [Compound 3-71, N-hydroxy-2-phenyl-2-(4-(3-(trifluoromethyl)benzyloxy)phenyl)acetamide] | < 1000
11 | CC(C)Nc1cccc(C(C(=O)NO)c2ccccc2)c1 (centres unmarked) [Compound 3-72, N-hydroxy-2-(3-(isopropylamino)phenyl)-2-phenylacetamide] | 1000 to 15000
12 | O=C(NO)C(c1ccccc1)c1cccc(Nc2ccccc2)c1 (centres unmarked) [Compound 3-73, N-hydroxy-2-phenyl-2-(3-(phenylamino)phenyl)acetamide] | 1000 to 15000
13 | O=C(NO)C(c1ccccc1)c1cccc(NCc2ccccn2)c1 (centres unmarked) [Compound 3-74, N-hydroxy-2-phenyl-2-(3-(pyridin-2-ylmethylamino)phenyl)acetamide] | < 1000
14 | CC(=O)N1CCN(c2cccc(C(C(=O)NO)c3ccccc3)c2)CC1 (centres unmarked) [Compound 3-75, 2-(3-(4-acetylpiperazin-1-yl)phenyl)-N-hydroxy-2-phenylacetamide] | < 1000
15 | O=C(NO)C(c1ccccc1)c1cccc(N2CCC(N3CCCC3)CC2)c1 (centres unmarked) [Compound 3-76, N-hydroxy-2-phenyl-2-(3-(4-(pyrrolidin-1-yl)piperidin-1-yl)phenyl)acetamide] | < 1000
16 | O=C(NO)C(c1ccccc1)c1cccc(N2CCN(c3ccc(F)cc3)CC2)c1 (centres unmarked) [Compound 3-78, 2-(3-(4-(4-fluorophenyl)piperazin-1-yl)phenyl)-N-hydroxy-2-phenylacetamide] | 1000 to 15000
17 | CC(C)Nc1ccc(C(C(=O)NO)c2ccccc2)cc1 (centres unmarked) [Compound 3-79, N-hydroxy-2-(4-(isopropylamino)phenyl)-2-phenylacetamide] | < 1000
18 | O=C(NO)C(c1ccccc1)c1ccc(Nc2ccccc2)cc1 (centres unmarked) [Compound 3-80, N-hydroxy-2-phenyl-2-(4-(phenylamino)phenyl)acetamide] | < 1000
19 | O=C(NO)C(c1ccccc1)c1ccc(NCc2ccccn2)cc1 (centres unmarked) [Compound 3-81, N-hydroxy-2-phenyl-2-(4-(pyridin-2-ylmethylamino)phenyl)acetamide] | < 1000
20 | CC(=O)N1CCN(c2ccc(C(C(=O)NO)c3ccccc3)cc2)CC1 (centres unmarked) [Compound 3-82, 2-(4-(4-acetylpiperazin-1-yl)phenyl)-N-hydroxy-2-phenylacetamide] | < 1000
21 | O=C(NO)C(c1ccccc1)c1ccc(N2CCC(N3CCCC3)CC2)cc1 (centres unmarked) [Compound 3-83, N-hydroxy-2-phenyl-2-(4-(4-(pyrrolidin-1-yl)piperidin-1-yl)phenyl)acetamide] | < 1000
22 | O=C(NO)C(c1ccccc1)c1ccc(N2CCN(c3ccc(F)cc3)CC2)cc1 (centres unmarked) [Compound 3-84, 2-(4-(4-(4-fluorophenyl)piperazin-1-yl)phenyl)-N-hydroxy-2-phenylacetamide] | < 1000
23 | O=C(NO)C(c1ccccc1)c1ccc(OC/C=C/c2ccccc2)cc1 (centres unmarked) [Compound 3-85, (E)-2-(4-(cinnamyloxy)phenyl)-N-hydroxy-2-phenylacetamide] | < 1000
24 | O=C(NO)C(c1ccccc1)c1ccc(OCc2cccc(OC(F)(F)F)c2)cc1 (centres unmarked) [Compound 3-86, N-hydroxy-2-phenyl-2-(4-(3-(trifluoromethoxy)benzyloxy)phenyl)acetamide] | < 1000

Row | Compound | IC50 [nM]
25 | O=C(NO)C(c1ccccc1)c1cccc(OCc2cccc(OC(F)(F)F)c2)c1 (centres unmarked) [Compound 3-87, N-hydroxy-2-phenyl-2-(3-(3-(trifluoromethoxy)benzyloxy)phenyl)acetamide] | 1000 to 15000
26 | CN(C)CCOc1cccc(C(C(=O)NO)c2ccccc2)c1 (centres unmarked) [Compound 3-88, 2-(3-(2-(dimethylamino)ethoxy)phenyl)-N-hydroxy-2-phenylacetamide] | 1000 to 15000
27 | COCCOCCOc1cccc(C(C(=O)NO)c2ccccc2)c1 (centres unmarked) [Compound 3-89, N-hydroxy-2-(3-(2-(2-methoxyethoxy)ethoxy)phenyl)-2-phenylacetamide] | < 1000
28 | COCCOCCOc1ccc(C(C(=O)NO)c2ccccc2)cc1 (centres unmarked) [Compound 3-90, N-hydroxy-2-(4-(2-(2-methoxyethoxy)ethoxy)phenyl)-2-phenylacetamide] | < 1000
29 | O=C(NO)C(c1ccccc1)N1CCC(O)(c2ccccc2)CC1 (centres unmarked) [Compound 5-1, N-hydroxy-2-(4-hydroxy-4-phenylpiperidin-1-yl)-2-phenylacetamide] | < 1000
30 | O=C(NO)C(c1ccccc1)n1ccc(-c2ccccc2)c1 (centres unmarked) [Compound 5-2, N-hydroxy-2-phenyl-2-(3-phenyl-1H-pyrrol-1-yl)acetamide] | < 1000
31 | O=C(NO)C(c1ccccc1)c1nnc(Cc2c[nH]c3ccccc23)s1 (centres unmarked) [Compound 5-3, 2-(5-((1H-indol-3-yl)methyl)-1,3,4-thiadiazol-2-yl)-N-hydroxy-2-phenylacetamide] | < 1000
32 | O=C(NO)C(c1ccccc1)c1nnc(-c2cccs2)s1 (centres unmarked) [Compound 5-4, N-hydroxy-2-phenyl-2-(5-(thiophen-2-yl)-1,3,4-thiadiazol-2-yl)acetamide] | < 1000
33 | CN(C)c1ccc(C(C(=O)NO)c2ccc(O)cc2)cc1 (centres unmarked) [Compound 5-5, 2-(4-(dimethylamino)phenyl)-N-hydroxy-2-(4-hydroxyphenyl)acetamide] | < 1000
34 | O=C(NO)C(c1ccccc1)[S+]([O-])c1ccccc1 (centres unmarked) [Compound 5-6, N-hydroxy-2-phenyl-2-(phenylsulfinyl)acetamide] | 1000 to 15000
35 | O=C(NO)C(c1ccccc1)N1CC=C(c2c[nH]c3ccccc23)CC1 (centres unmarked) [Compound 5-7, 2-(4-(1H-indol-3-yl)-5,6-dihydropyridin-1(2H)-yl)-N-hydroxy-2-phenylacetamide] | < 1000
36 | O=C(NO)C(c1ccccc1)N1CCN(S(=O)(=O)c2ccccc2)CC1 (centres unmarked) [Compound 5-8, N-hydroxy-2-phenyl-2-(4-(phenylsulfonyl)piperazin-1-yl)acetamide] | < 1000
37 | COc1ccc(-c2ccc(C(C(=O)NO)c3ccccc3)cc2)cc1 (centres unmarked) [Compound 5-9, N-hydroxy-2-(4′-methoxybiphenyl-4-yl)-2-phenylacetamide] | < 1000
38 | O=C(NO)C(c1ccccc1)c1ccc(-c2ccncc2)cc1 (centres unmarked) [Compound 5-10, N-hydroxy-2-phenyl-2-(4-(pyridin-4-yl)phenyl)acetamide] | < 1000
39 | O=C(NO)C(c1ccccc1)N1CCN(c2ncc(-c3ccccc3)cn2)CC1 (centres unmarked) [Compound 5-11, N-hydroxy-2-phenyl-2-(4-(5-phenylpyrimidin-2-yl)piperazin-1-yl)acetamide] | < 1000
40 | O=C(NO)C(c1ccccc1)c1ccc(-c2cccnc2)cc1 (centres unmarked) [Compound 5-12, N-hydroxy-2-phenyl-2-(4-(pyridin-3-yl)phenyl)acetamide] | < 1000
41 | O=C(NO)C(c1ccccc1)c1ccc(-c2cccc3ccccc23)cc1 (centres unmarked) [Compound 5-13, N-hydroxy-2-(4-(naphthalen-1-yl)phenyl)-2-phenylacetamide] | < 1000
42 | O=C(NO)C(Oc1ccc(-c2ccccc2)cc1)c1ccccc1 (centres unmarked) [Compound 5-14, 2-(biphenyl-4-yloxy)-N-hydroxy-2-phenylacetamide] | 1000 to 15000
43 | O=C(NO)C(c1ccccc1)c1cccnc1 (centres unmarked) [Compound 5-15, N-hydroxy-2-phenyl-2-(pyridin-3-yl)acetamide] | < 1000
44 | O=C(NO)C(c1ccccc1)N1CCc2[nH]c3ccc(F)cc3c2C1 (centres unmarked) [Compound 5-16, 2-(8-fluoro-3,4-dihydro-1H-pyrido[4,3-b]indol-2(5H)-yl)-N-hydroxy-2-phenylacetamide] | 1000 to 15000
45 | O=C(NO)C(c1ccccc1)N1CCC(c2cn(Cc3ccccc3)c3ccccc23)CC1 (centres unmarked) [Compound 5-17, 2-(4-(1-benzyl-1H-indol-3-yl)piperidin-1-yl)-N-hydroxy-2-phenylacetamide] | < 1000
46 | O=C(NO)C(c1ccccc1)N1CCC(c2noc3ccc(F)cc23)CC1 (centres unmarked) [Compound 5-18, 2-(4-(5-fluorobenzo[d]isoxazol-3-yl)piperidin-1-yl)-N-hydroxy-2-phenylacetamide] | < 1000
47 | O=C(NO)C(c1ccccc1)c1nnc(-c2ccccc2)s1 (centres unmarked) [Compound 5-19, N-hydroxy-2-phenyl-2-(5-phenyl-1,3,4-thiadiazol-2-yl)acetamide] | 1000 to 15000
